Series [1] relates to MK-45 cells. In words: Colony formation analysis of MK-45 cells. It counts as cell-based, human. Particulars: 14 days culture; for colony formation, combination with CPT-11: 10 μM CBDC compound plus 10 μg/ml CPT-11, 3 hours; for colony formation, CBDC compound alone: 10 μM, 3-hour treatment. The procedure:
MK-45 cells from a human gastric cancer derived cell line, were seeded in 6-well plates at 1000 cells/well. After the overnight culture, the cells were treated 10 μM of various CBDC compounds, 10 μg/ml CPT-11, or a combination of CBDC compounds and CPT-11 for three (3) hours. The CBDC compounds tested were: CBDC402, CBDC412, CBDC413, and CBDC418. The culture medium was changed and cells were cultured for 14 days, after which the colonies were fixed with methanol and stained with 0.1% crystal violet.

Series [2] has as its system HCT116 cells. How it is done: The subG1 population was determined by staining HCT116 with Krishan's solution and analyzed by flow cytometer. The dead cells were identified on the basis of DNA content, and the percentage of cells in sub G1 (% subG1) was calculated.
For series [3], the system named is Jurkat cells. In words: G2 checkpoint abrogation in bleomycin-treated Jurkat cells (flow cytometry of DNA content). It counts as cell-based, human. Particulars: for abrogation of bleomycin-induced accumulation of G2/M cells (% G2/M): bleomycin 40 μg/ml plus compound 0.2-50 μg/ml. How it is done: (§1) Cell culture. A human T-cell leukemia-derived cell line, Jurkat, was cultured in RPMI 1640 media (Sigma) supplemented with 10% fetal calf serum (IBL: Immuno-Biological Laboratories, Gunma, Japan) at 37° C./5% CO2. A human colon cancer-derived cell line, HCT116, was cultured in McCoy's 5A Medium Modified (Gibco BRL) and supplemented with 10% fetal calf serum at 37° C./5% CO2. Normal human peripheral blood lymphocytes were separated by Ficoll-Paque® (Pharmacia) and cultured in the presence of 0.1 μg/ml PHA and 1 μg/ml IL-2.
(§2) Cell-cycle analysis. […] Briefly, two million cells were resuspended and incubated in 300 μl Krishan's solution (0.1% Sodium citrate, 50 μg/ml PI, 20 μg/ml RNase A and 0.5% NP-40) for 1 hr at 4° C. and analyzed by flow cytometry using a FACScan™ flow cytometer (Beckton Dickinson, Mountain View, Calif.) with the CELLQuest™ program (Beckton Dickinson).
DNA of treated Jurkat cells was stained with propidium iodine, and the cell cycle status of each cell was assessed by flow cytometry.
CBDC compounds 004, 402, 403, 404, 405, 406, 407, 408, 409, 410, and 411 were tested. Cells were harvested, DNA was stained with propidium iodine, and the percentage of cells in G2/M phase (% G2/M) was determined by flow cytometry.
Activated normal T cells and leukemic T cells (Jurkat cells) were treated with agents to induce accumulation of cells at G2 or M phase, and the effect of CBDC402 on progression of cells through cell cycle checkpoints was measured. After treatments, cells were harvested, DNA was stained, and the cell cycle stage for each cell was determined by flow cytometry as described above. […] In another experiment, activated normal T cells received no treatment (control) or were treated with colchicine or a combination of […] and colchicine.
In general terms: In flow cytometry, cells or beads pass a laser one at a time.

Series [4] relates to Activated normal T cells. The series is described as follows: G2 checkpoint in bleomycin-treated activated normal T cells (flow cytometry). The class given is cell-based, human. How it is done:
as §1, §2
(§3) Activated normal T cells and leukemic T cells (Jurkat cells) were treated with agents to induce accumulation of cells at G2 or M phase, and the effect of CBDC402 on progression of cells through cell cycle checkpoints was measured. After treatments, cells were harvested, DNA was stained, and the cell cycle stage for each cell was determined by flow cytometry as described above. […]

Series [5] has as its system HCT-116 human colon carcinoma cells. In words: Xenograft tumor growth in SCID mice. The class given is in vivo. Particulars: HCT-116 xenograft, intraperitoneal. The procedure: Treatment was initiated when the primary tumors reached the size of 0.1 cm^3 (7 or 8 mm, designated as Day 1).
Anti-cancer agent CPT-11 (CAMPTOSAR®, Irinotecan, a topoisomerase inhibitor) and CBDC402 were administered by intraperitoneal injection in the following treatment regimens: […] at 20 mg/kg once a week; CBDC402 at 20 mg/kg twice a week; CBDC402 at 40 mg/kg twice a week; CBDC402 at 20 mg/kg twice and week plus CPT-11 at 20 mg/kg once a week; and CBDC402 at 40 mg/kg twice a week plus CPT-11 at 20 mg/kg once a week. DMSO was administered as a control treatment. Tumor sizes were measured using calipers three times a week, and the volume was calculated using the formula; […]=[width (mm)^2×length (mm)]/2. Mean tumor sizes for each treatment group (n=4) were plotted against the days of treatment.

The subject of series [6] is Activated normal T cells. In words: M phase checkpoint in colchicine-treated activated normal T cells (flow cytometry). Particulars: FIG. 10c. The class given is cell-based, human. The procedure: as §1, §2, §3
Series [7] concerns Jurkat cells. The series is described as follows: M phase checkpoint in colchicine-treated Jurkat cells (flow cytometry). It counts as cell-based, human. Particulars: 24 hrs. The procedure: as §1, §2
Jurkat cells were treated with colchicine (5 ug/ml), and colchicine plus the compound CBDC402 in various concentrations (0.2, 0.39, 0.78, 1.56, 3.125, 6.25, 12.5, 25 and 50 ug/ml) for 24 hrs. DNA of treated Jurkat cells was stained with propidium iodine, and the cell cycle status of each cell was assessed by flow cytometry.

Entries after “also recorded” stand apart in the source; their conditions may differ. Like-named read-outs stand apart in the source and are kept apart here.

As for `O=C(Oc1ccc(F)cc1)c1ccc(Br)cc1` [CBDC412, 4-Bromo-benzoic acid 4-fluoro-phenyl ester], in series [1], the “colony formation, combination with CPT-11” value is “a slight suppression of colony formation above that seen with CPT-11 alone” and the “colony formation, CBDC compound alone” value is given as “a slight suppression of colony formation”.

As for `COc1cccc2c1C(=O)c1c(O)c3c(c(O)c1C2=O)C[C@@](O)(C(=O)CO)C[C@@H]3O[C@H]1C[C@H](N)[C@H](O)[C@H](C)O1` [adriamycine, adriamycin], the “cytotoxic effect (% subG1) of anti-cancer agent alone” value in series [2] was “had a cytotoxic effect on HCT116 cells”.

Regarding `Cc1ccc(OC(=O)c2ccc(Br)cc2)cn1` [CBDC418, 4-Bromo-benzoic acid 6-methyl-pyridin-3-yl ester], the “colony formation, CBDC compound alone” value in series [1] was “did not have an appreciable effect on colony formation”.

As for `Cc1ccc(OC(=O)c2cc(F)c(F)c(F)c2)cc1` [CBDC403, 3,4,5-Trifluoro-benzoic acid p-toly 1 ester], in series [3] (Jurkat cells, 24 hrs), the “abrogation of bleomycin-induced accumulation of G2/M cells (% G2/M)” value (“abrogation … (% G2/M)” for short) was “abrogated the G2 cell cycle checkpoint in bleomycin-treated Jurkat cells in a dose-dependent manner”.

On to `CC.Cc1ccc(OC(=O)c2ccc(Cl)c(Cl)c2)cc1` [CBDC405, 3,4-Dichloro-benzoic acid p-tolyl ester; compound with ethane], for which, in series [3] (Jurkat cells, 24 hrs), the “abrogation … (% G2/M)” value is reported as “abrogated the G2 cell cycle checkpoint in bleomycin-treated Jurkat cells in a dose-dependent manner”.

Take `CC.Cc1ccc(OC(=O)c2ccc(Cl)cc2Cl)cc1` [CBDC406, 2,4-Dichloro-benzoic acid p-tolyl ester; compound with ethane]: the “abrogation … (% G2/M)” value in series [3] (Jurkat cells, 24 hrs) is recorded as “abrogated the G2 cell cycle checkpoint in bleomycin-treated Jurkat cells in a dose-dependent manner”.

For the molecule `CC.Cc1ccc(OC(=O)c2ccc(Cl)cc2)cc1C` [CBDC409, 4-Chloro-benzoic acid 3,4-dimethyl-phenyl ester; compound with ethane], in series [3] (Jurkat cells, 24 hrs), the “abrogation … (% G2/M)” value is “abrogated the G2 cell cycle checkpoint in bleomycin-treated Jurkat cells in a dose-dependent manner”.

As to `CC.O=C(Oc1ccc(Br)cc1)c1ccc(F)cc1` [CBDC404, 4-Fluoro-benzoic acid 4-bromo-pheny 1 ester; compound with ethane], in series [3] (Jurkat cells, 24 hrs), the “abrogation … (% G2/M)” value is recorded as “abrogated the G2 cell cycle checkpoint in bleomycin-treated Jurkat cells in a dose-dependent manner”.

Turning to bleomycin [reference compound], in series [3] (Jurkat cells, bleomycin 40 μg/ml, 24 hrs), the “accumulation of cells in G2/M phase by agent alone” value is given as “induced an accumulation of cells in cell cycle G2/M phase”. The “accumulation of cells at G2 phase by bleomycin alone” value in series [3] (leukemic T cells (Jurkat cells), FIG. 10b) is recorded as “caused accumulation of a major population of cells at G2 phase”; in series [4] (FIG. 10a), “caused accumulation of a minor population of cells at G2 phase”.

`CCc1c2c(nc3ccc(OC(=O)N4CCC(N5CCCCC5)CC4)cc13)-c1cc3c(c(=O)n1C2)COC(=O)[C@]3(O)CC` [CPT-11, Irinotecan, reference compound]: in series [5] (20 mg/kg once a week), the “tumor growth, CPT-11 alone” value is “reduced tumor growth”. In series [1] (10 μg/ml, 3 hours), the “colony formation, CPT-11 alone” value is listed as “significant suppression of colony formation”.

Consider `CC.O=C(Oc1ccc(O)cc1)c1ccc(F)cc1` [CBDC411, 4-Fluoro-benzoic acid 4-hydroxy-phenyl ester; compound with ethane], for which the “abrogation … (% G2/M)” value in series [3] (Jurkat cells, 24 hrs) is reported as “abrogated the G2 cell cycle checkpoint in bleomycin-treated Jurkat cells in a dose-dependent manner”.

As for `O=C(Oc1ccc(C(F)(F)F)cc1)c1ccc(Br)cc1` [CBDC413, 4-Bromo-benzoic acid 4-trifluoromethyl-phenyl ester], in series [1], the “colony formation, CBDC compound alone” value is given as “did not have an appreciable effect on colony formation”.

Take `COc1cc2c(c(OC)c1OC)-c1ccc(OC)c(=O)cc1[C@@H](NC(C)=O)CC2` [colchicine, reference compound]: the “accumulation of cells in M phase by colchicine alone” value in series [6] is “caused an accumulation of cells in M phase”. Moreover, the “accumulation of cells in G2/M phase by agent alone” value in series [7] (colchicine 5 ug/ml) is “induced an accumulation of cells in G2/M phase cells”.

For `CC[C@@]1(O)C(=O)OCc2c1cc1n(c2=O)Cc2cc3ccccc3nc2-1` [canptothecine, camptothecin], in series [2] (HCT116 cells, without CBDC004), the “cytotoxic effect (% subG1) of anti-cancer agent alone” value was “had a cytotoxic effect on HCT116 cells”.

Regarding `CC.O=C(Oc1ccc(O)cc1)c1ccc(Cl)cc1` [CBDC410, 4-Chloro-benzoic acid 4-hydroxy-phenyl ester; compound with ethane], the “abrogation … (% G2/M)” value in series [3] (Jurkat cells, 24 hrs) is listed as “abrogated the G2 cell cycle checkpoint in bleomycin-treated Jurkat cells in a dose-dependent manner”.

For `CC.Cc1ccc(OC(=O)c2ccc(F)cc2)cc1` [CBDC407, 4-Fluoro-benzoic acid p-tolyl ester; compound with ethane], the “abrogation … (% G2/M)” value in series [3] (Jurkat cells, 24 hrs) is “abrogated the G2 cell cycle checkpoint in bleomycin-treated Jurkat cells in a dose-dependent manner”.

Regarding `Cc1ccc(OC(=O)c2ccc(Br)cc2)cc1` [CBDC402, 4-Bromo-benzoic acid p-tolyl ester], the “abrogation … (% G2/M)” value in series [3] (Jurkat cells, 24 hrs) is on record as “abolished the bleomycin-induced accumulation of G2/M cells in a dose-dependent manner; also recorded: abrogated the G2 cell cycle checkpoint in bleomycin-treated Jurkat cells in a dose-dependent manner”. Moreover, the “relative G2 checkpoint abrogating activity among CBDC compounds tested (dose-response curve)” value in series [3] (Jurkat cells, bleomycin 40 ug/ml, 24 hrs, FIG. 3) was “showed the highest activity”. For the same molecule, the “effect on bleomycin-induced increase of cells at G2 phase” value is on record as “abolished the large bleomycin-induced increase of leukemic T cells (Jurkat cells) at G2 phase” in series [3] (leukemic T cells (Jurkat cells), combination of bleomycin and CBDC402, FIG. 10b); “abolished the bleomycin-induced increase of activated normal T cells at G2 phase” in series [4] (combination of bleomycin and CBDC402, FIG. 10a). Besides, the “tumor growth, CBDC402 alone” value in series [5] (20 or 40 mg/kg twice a week (both concentrations)) was “gave a slight reduction in tumor growth”. Besides, the “tumor growth, combination with CPT-11” value in series [5] (CBDC402 20 or 40 mg/kg twice a week plus CPT-11 20 mg/kg once a week) is “significantly reduced or inhibited tumor growth”. In series [1], the “colony formation, combination with CPT-11” value is “almost complete suppression of colony formation”. Moreover, the “colony formation, CBDC compound alone” value in series [1] is on record as “significant suppression of colony formation”. The “effect on colchicine-induced increase of cells at M phase” value in series [6] (combination with colchicine) is recorded as “did not affect the colchicine-induced increase of activated normal T cells at M phase”. Besides, in series [7] (colchicine 5 ug/ml plus compound 0.2-50 ug/ml), the “abrogation of colchicine-induced G2/M accumulation” value is “did not abrogate this G2/M accumulation at any CBDC402 concentration”.

Regarding `CC.Cc1ccc(OC(=O)c2c(F)c(F)c(F)c(F)c2F)cc1` [CBDC408, 2,3,4,5,6-Pentafluoro-benzoic acid p-tolyl ester; compound with ethane], the “abrogation … (% G2/M)” value in series [3] (Jurkat cells, 24 hrs) is on record as “abrogated the G2 cell cycle checkpoint in bleomycin-treated Jurkat cells in a dose-dependent manner”.

Values taken from patent US7629364B2, “Compounds that abrogate DNA-damage-induced cell cycle G2 checkpoint and/or augment anti-cancer activity of DNA-damaging treatments” (Canbas Co., Ltd., priority 2002, dated 2009).
